The values that follow come from ChEMBL document CHEMBL1151348, “Plant anticancer agents. X. Lignans from Juniperus phoenicea” (1980).

Molecules are shown by their SMILES. ≈ marks a conversion by molar mass, not a printed value.

The experiment concerns KB. Kind of experiment: Cytotoxicity against human KB cells. The settings on record: read-out: ED50 (the source's name). Format: functional.

As to `COc1cc([C@@H]2c3cc4c(c(OC)c3C[C@H]3COC(=O)[C@@H]32)OCO4)cc(OC)c1OC`, the EC50 was found to be 0.026 µg/mL (≈ 0.0607 µM).
